In ChEMBL document CHEMBL3301562, “MMV Box screening against Plasmodium falciparum protein kinases and aminoacyl tRNA synthetases” one finds IC50 data, which are given here for 15 compounds.

Assay type in all cases: functional
The target of test [1] is T1, Cdk-related protein kinase 6 (Plasmodium falciparum, UniProt O77239).
T1 sequence (O77239 whole entry): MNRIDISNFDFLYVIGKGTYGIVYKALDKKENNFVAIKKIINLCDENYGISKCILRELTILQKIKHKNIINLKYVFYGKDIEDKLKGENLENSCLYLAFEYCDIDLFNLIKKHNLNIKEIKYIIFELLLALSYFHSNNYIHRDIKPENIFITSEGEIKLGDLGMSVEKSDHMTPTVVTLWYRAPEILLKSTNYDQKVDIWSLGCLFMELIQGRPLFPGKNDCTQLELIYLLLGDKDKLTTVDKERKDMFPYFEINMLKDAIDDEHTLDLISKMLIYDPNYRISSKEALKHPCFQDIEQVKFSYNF
The test can be described thus: Final concentrations were 1.5 uM ATP, 5 mM MnCl2, and 15 ug/ml PK6 in a buffer of 100 mM Tris-HCl (pH 7.5). 50 ug/mL MBP was provided as the substrate; 10 uM staurosporine was used as a control inhibitor. Incubation time was 3 hours and 40 minutes.The catalytic activity of each kinase was considered proportional to ATP consumed, as determined from measurements of residual [ATP] with the luciferase-based reagent Kinase-Glo (Promega) following incubation. Luminescence (proportional to residual [ATP]) was measured on the plate readers FLx800 (BioTek Instruments, Winooski, VT, USA) and MicroBeta2.

For test [2], the target named is T2, Putative uncharacterized protein pk7 (Plasmodium falciparum, UniProt O96214).
T2 sequence (O96214 whole entry): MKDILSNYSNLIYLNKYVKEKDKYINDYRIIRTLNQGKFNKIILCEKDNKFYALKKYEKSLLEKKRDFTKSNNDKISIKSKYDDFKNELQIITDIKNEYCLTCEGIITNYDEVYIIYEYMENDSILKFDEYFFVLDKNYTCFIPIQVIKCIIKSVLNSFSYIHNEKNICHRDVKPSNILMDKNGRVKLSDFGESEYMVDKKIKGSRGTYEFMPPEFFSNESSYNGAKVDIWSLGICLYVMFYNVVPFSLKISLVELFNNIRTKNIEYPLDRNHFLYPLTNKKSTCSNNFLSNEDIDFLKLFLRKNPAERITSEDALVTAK
The test can be described thus: Final concentrations were 1 uM ATP, 2 mM DTT, 20 mM MgCl2, 2 mM MnCl2, 0.01% BSA, and 6 ug/ml PK7, in a buffer of 20 mM Tris-HCl (pH 7.5). The enzyme itself was the only substrate present (since autophosphorylation occurs); 100 uM 1NA-PP1 was used as a control inhibitor. Incubation time was 3 hours.

The target of test [3] is T3, Mitogen-activated protein kinase (Plasmodium falciparum, UniProt Q25917).
T3 sequence (Q25917 whole entry): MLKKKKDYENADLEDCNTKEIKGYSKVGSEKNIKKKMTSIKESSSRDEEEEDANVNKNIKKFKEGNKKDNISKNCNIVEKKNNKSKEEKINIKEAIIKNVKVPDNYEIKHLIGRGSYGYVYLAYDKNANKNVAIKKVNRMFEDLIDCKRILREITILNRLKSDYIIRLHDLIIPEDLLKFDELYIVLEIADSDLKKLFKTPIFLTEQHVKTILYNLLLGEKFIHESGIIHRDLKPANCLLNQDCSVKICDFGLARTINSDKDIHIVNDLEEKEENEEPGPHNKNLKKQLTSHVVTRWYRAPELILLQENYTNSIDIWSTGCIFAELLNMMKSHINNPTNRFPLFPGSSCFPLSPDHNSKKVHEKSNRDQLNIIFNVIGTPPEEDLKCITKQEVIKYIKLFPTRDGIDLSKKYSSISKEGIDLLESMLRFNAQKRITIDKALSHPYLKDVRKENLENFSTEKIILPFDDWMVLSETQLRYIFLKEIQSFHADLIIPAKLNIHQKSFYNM
As to the kind of experiment: Final concentrations were 1 uM ATP, 0.5 mM DTT, 1 mM MgCl2, 0.5 mg/mL BSA, and 10 ug/ml MAP2 in a buffer of 50 mM HEPES (pH 7.0). 0.5 mg/mL histone III-S served as the substrate (13); 100 uM AMP-PNP, an ATP analog, was used as a control inhibitor. Incubation time was 4 hours.

The target in test [4] is Calcium-dependent protein kinase 1 (Plasmodium falciparum, UniProt P62344). As to the kind of experiment: MMV: CDPK1 Protein kinase inhibition assay using recombinant PfCDPK1, syntide 2 peptide substrate, ATP and KinaseGlo to measure % inhibition at 1 uM MMV box compound.
Chain of Calcium-dependent protein kinase 1 (P62344 whole entry): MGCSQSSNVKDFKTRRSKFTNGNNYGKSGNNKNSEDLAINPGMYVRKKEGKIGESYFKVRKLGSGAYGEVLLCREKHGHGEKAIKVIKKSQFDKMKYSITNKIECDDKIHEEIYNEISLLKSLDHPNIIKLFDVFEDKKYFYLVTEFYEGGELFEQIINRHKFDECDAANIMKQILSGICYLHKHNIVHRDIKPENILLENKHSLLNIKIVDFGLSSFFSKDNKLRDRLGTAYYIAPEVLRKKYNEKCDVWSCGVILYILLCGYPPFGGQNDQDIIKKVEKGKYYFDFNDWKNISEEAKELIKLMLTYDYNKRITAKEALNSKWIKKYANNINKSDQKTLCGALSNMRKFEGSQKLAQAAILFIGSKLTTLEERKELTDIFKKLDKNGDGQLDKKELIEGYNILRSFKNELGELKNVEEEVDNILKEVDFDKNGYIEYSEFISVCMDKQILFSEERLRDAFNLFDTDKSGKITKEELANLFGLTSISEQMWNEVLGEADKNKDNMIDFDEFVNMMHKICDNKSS
In test [5] the target is T4, Calcium-dependent protein kinase 4 (Plasmodium falciparum (isolate 3D7), UniProt Q8IBS5).
T4 sequence (Q8IBS5 whole entry): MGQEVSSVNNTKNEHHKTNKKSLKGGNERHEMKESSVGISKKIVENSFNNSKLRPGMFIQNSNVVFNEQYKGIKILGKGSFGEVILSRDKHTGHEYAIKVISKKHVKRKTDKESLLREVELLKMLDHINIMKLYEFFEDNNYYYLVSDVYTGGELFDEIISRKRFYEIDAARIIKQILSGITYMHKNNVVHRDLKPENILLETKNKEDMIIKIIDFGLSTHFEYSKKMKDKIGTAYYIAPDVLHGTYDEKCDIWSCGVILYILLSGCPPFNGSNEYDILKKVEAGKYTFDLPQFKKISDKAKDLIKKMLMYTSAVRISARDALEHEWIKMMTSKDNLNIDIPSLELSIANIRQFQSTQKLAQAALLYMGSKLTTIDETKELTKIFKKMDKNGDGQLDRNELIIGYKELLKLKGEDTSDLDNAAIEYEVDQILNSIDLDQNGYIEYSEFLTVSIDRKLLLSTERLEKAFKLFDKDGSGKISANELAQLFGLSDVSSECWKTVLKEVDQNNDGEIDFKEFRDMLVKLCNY
The test can be described thus: MMV: CDPK4 Protein kinase inhibition assay using recombinant PfCDPK4, syntide2 peptide substrate, ATP and KinaseGlo to measure % inhibition at 1 uM MMV box compound.

Test [6] concerns the target T5, Proline--tRNA ligase (Plasmodium falciparum (isolate 3D7), UniProt Q8I5R7).
T5 sequence (Q8I5R7 whole entry): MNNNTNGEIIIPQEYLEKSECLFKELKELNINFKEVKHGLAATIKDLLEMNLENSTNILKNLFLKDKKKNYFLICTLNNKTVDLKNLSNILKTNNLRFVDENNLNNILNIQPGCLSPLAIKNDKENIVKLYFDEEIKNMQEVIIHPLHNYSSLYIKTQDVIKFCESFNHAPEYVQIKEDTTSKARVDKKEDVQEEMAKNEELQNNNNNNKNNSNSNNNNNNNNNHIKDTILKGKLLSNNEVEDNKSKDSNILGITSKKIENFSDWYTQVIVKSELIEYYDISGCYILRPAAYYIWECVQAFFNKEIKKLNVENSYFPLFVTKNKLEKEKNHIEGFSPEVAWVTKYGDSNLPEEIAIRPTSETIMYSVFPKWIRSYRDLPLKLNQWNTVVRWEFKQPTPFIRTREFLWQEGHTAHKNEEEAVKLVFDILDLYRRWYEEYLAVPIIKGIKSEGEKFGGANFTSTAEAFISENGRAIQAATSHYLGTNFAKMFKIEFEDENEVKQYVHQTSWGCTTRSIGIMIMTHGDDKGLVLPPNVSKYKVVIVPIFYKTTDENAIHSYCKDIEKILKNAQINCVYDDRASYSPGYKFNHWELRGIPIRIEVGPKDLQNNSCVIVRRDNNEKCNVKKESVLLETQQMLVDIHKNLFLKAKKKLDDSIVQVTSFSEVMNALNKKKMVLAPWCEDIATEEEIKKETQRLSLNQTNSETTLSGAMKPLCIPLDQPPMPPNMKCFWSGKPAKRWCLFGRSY
The test can be described thus: MMV: ProRS recombinant Plasmodium falciparum Prolyl-tRNA-synthetase, assay with yeast tRNA, ATP, and proline and 3 uM MMV malaria box compound, assay read out with kinase glo as % inhibition.

Test [7] has as its target Lysine--tRNA ligase (Plasmodium falciparum (isolate 3D7), UniProt Q8IDJ8). As to the kind of experiment: MMV: KRS recombinant Plasmodium falciparum Lysyl-tRNA-synthetase, assay with yeast tRNA, ATP, and lysine and 3 uM MMV malaria box compound, assay read out with kinase glo as % inhibition.

Chain of Lysine--tRNA ligase (Q8IDJ8 whole entry): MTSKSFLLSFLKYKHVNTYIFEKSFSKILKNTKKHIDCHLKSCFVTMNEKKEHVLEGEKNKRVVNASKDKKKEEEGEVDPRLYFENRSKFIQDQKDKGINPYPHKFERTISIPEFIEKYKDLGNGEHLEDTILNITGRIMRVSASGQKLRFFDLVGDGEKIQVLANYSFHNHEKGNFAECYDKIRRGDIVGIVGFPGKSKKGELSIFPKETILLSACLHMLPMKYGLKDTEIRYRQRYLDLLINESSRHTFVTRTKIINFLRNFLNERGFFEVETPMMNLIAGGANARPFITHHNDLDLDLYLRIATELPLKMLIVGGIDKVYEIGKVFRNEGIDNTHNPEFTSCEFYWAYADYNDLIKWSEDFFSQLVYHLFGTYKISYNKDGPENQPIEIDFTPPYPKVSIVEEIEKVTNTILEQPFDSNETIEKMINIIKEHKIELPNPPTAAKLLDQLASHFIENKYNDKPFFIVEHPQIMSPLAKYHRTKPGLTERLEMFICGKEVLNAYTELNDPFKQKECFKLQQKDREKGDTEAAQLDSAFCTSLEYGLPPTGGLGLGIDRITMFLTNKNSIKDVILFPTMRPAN

Take `Cc1cc(Nc2ccc(C)c(Cl)c2)n2nc(C(F)(F)F)nc2n1`: the half-maximal inhibitory concentration (IC50) was over 1000 nM in test [1]; over 1000 nM in test [2]; over 1000 nM in test [3]; over 1000 nM in test [4]; over 1000 nM in test [5]; over 2500 nM in test [6]. Further, the IC50 in test [7] was over 2500 nM.

On to `COCCNC(=O)c1ccc(OC2CCN(Cc3ccc(F)c(F)c3)CC2)c(Cl)c1`, for which the concentration for half-maximal inhibition (IC50) in test [1] was over 1000 nM; in test [2], over 1000 nM; in test [3], over 1000 nM; in test [4] it was over 1000 nM; in test [5], over 1000 nM; in test [6] it was over 2500 nM. For the same compound, the 50% inhibitory concentration (IC50) in test [7] is over 2500 nM.

In the case of `CCCN(CCC)CC(O)COc1ccccc1C(=O)Nc1ccccc1` (stereo not given), the concentration for half-maximal inhibition (IC50) in test [1] is over 1000 nM; in test [2], over 1000 nM; in test [3] it was over 1000 nM; in test [4], over 1000 nM; in test [5], over 1000 nM; in test [6], over 2500 nM. In addition, in test [7], the IC50 was over 2500 nM.

With `CNCCCNc1ccnc2cc(Cl)ccc12`, the IC50 in test [1] was over 1000 nM; in test [2], over 1000 nM; in test [3] it was over 1000 nM; in test [4], over 1000 nM; in test [5], over 1000 nM; in test [6] it was over 2500 nM. For the same compound, the IC50 in test [7] is over 2500 nM.

For `C[n+]1c2ccccc2nc2ccc(NCCO)cc21`, the IC50 in test [1] was over 1000 nM; in test [2], over 1000 nM; in test [3] it was over 1000 nM; in test [4], over 1000 nM; in test [5], over 1000 nM; in test [6], over 2500 nM. In test [7], the IC50 is over 2500 nM.

`Cn1c(=O)c2cc(C(=O)NCCCN3CCCCCC3)sc2c2ccccc21`: the IC50 in test [1] was over 1000 nM; in test [2], over 1000 nM; in test [3], over 1000 nM; in test [4] it was over 1000 nM; in test [5] it was over 1000 nM; in test [6], over 2500 nM. Besides, the IC50 in test [7] was over 2500 nM.

For the compound `Cc1cc(Nc2ccc3ccccc3c2)n2ncnc2n1`, the IC50 in test [1] is over 1000 nM; in test [2], over 1000 nM; in test [3], over 1000 nM; in test [4] it was over 1000 nM; in test [5], over 1000 nM; in test [6] it was over 2500 nM. In addition, in test [7], the IC50 was over 2500 nM.

As for `COc1ccc(C2NCCc3c2[nH]c2ccccc32)cc1CN1CCN(c2ccc(F)cc2)CC1` (stereo not given), the IC50 was over 1000 nM in test [1]; over 1000 nM in test [2]; over 1000 nM in test [3]; over 1000 nM in test [4]; over 1000 nM in test [5]; over 2500 nM in test [6]. For the same compound, the IC50 in test [7] was over 2500 nM.

`O=C(CCc1ccco1)NC1CCN(CC2(c3ccc(Cl)cc3)CCC2)CC1`: the IC50 in test [1] was over 1000 nM; in test [2], over 1000 nM; in test [3] it was over 1000 nM; in test [4], over 1000 nM; in test [5], over 1000 nM; in test [6] it was over 2500 nM. Besides, the 50% inhibitory concentration (IC50) in test [7] is over 2500 nM.

Consider `CCCCN(CCCC)S(=O)(=O)c1ccc(NC(=O)c2ccco2)cc1`, for which the IC50 is over 1000 nM in test [1]; over 1000 nM in test [2]; over 1000 nM in test [3]; over 1000 nM in test [4]; over 1000 nM in test [5]; over 2500 nM in test [6]. Moreover, the IC50 in test [7] was over 2500 nM.

Regarding `CCOC(=O)c1cnc2ccc(OC)cc2c1NCc1ccccc1`, the IC50 was over 1000 nM in test [1]; over 1000 nM in test [2]; over 1000 nM in test [3]; over 1000 nM in test [4]; over 1000 nM in test [5]; over 2500 nM in test [6]. Moreover, in test [7], the 50% inhibitory concentration (IC50) is over 2500 nM.

As for `CCN(CC)CCCNc1nc(-c2ccc(Cl)cc2)nc2ccccc12`, the IC50 was over 1000 nM in test [1]; over 1000 nM in test [2]; over 1000 nM in test [3]; over 1000 nM in test [4]; over 1000 nM in test [5]; over 2500 nM in test [6]. Besides, in test [7], the IC50 was over 2500 nM.

Take `Cc1ccc2c(C)nc(Nc3nc(C)cc(-c4ccccc4)n3)nc2c1`: the concentration for half-maximal inhibition (IC50) was over 1000 nM in test [1]; over 1000 nM in test [2]; over 1000 nM in test [3]; over 1000 nM in test [4]; over 1000 nM in test [5]; over 2500 nM in test [6]. In addition, the IC50 in test [7] was over 2500 nM.

Consider `Cc1ccc(C2CC(C(F)(F)F)n3nc(C(=O)N4CCN(C(c5ccccc5)c5ccccc5)CC4)cc3N2)cc1` (stereo not given), for which the IC50 in test [1] was over 1000 nM; in test [2], over 1000 nM; in test [3] it was over 1000 nM; in test [4] it was over 1000 nM; in test [5], over 1000 nM; in test [6], over 2500 nM. Further, in test [7], the IC50 was over 2500 nM.

Take `Clc1ccc2[nH]c3c(NCCCN4CCOCC4)ncnc3c2c1`: the IC50 in test [1] is over 1000 nM; in test [2], over 1000 nM; in test [3] it was over 1000 nM; in test [4], over 1000 nM; in test [5], over 1000 nM; in test [6], over 2500 nM. In addition, in test [7], the IC50 is over 2500 nM.
